Several values for one entry are separate records, joined by “and”; a condition that tells them apart may be missing. Identical values can stand only once.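 96-well plates; 48 h exposure; 5 concentrations. Endpoints by linear interpolation between flanking doses. Not reached: highest tested concentration assigned. GI50 = concentration required for 50% inhibition of growth. TGI denotes the concentration required for complete inhibition of growth.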
Legend:
Assay in all cases: NCI anticancer screen, dose series, 48 h
MCF7 breast = system: MCF7 breast
SNB-75 CNS = system: SNB-75 CNS
MDA-MB-231 breast = system: MDA-MB-231 breast
T-47D breast = system: T-47D breast
OVCAR-4 ovarian = system: OVCAR-4 ovarian
SR leukemia = system: SR leukemia
BT-549 breast = system: BT-549 breast
MDA-MB-435 = system: MDA-MB-435
MALME-3M melanoma = system: MALME-3M melanoma
NCI-H522 lung = system: NCI-H522 lung

Row | SMILES | GI50 (MCF7 breast) | TGI (MCF7 breast) | GI50 (SNB-75 CNS) | TGI (SNB-75 CNS) | GI50 (MDA-MB-231 breast) [µM] | TGI (MDA-MB-231 breast) | GI50 (T-47D breast) [µM] | TGI (T-47D breast) | GI50 (OVCAR-4 ovarian) | TGI (OVCAR-4 ovarian) | GI50 (SR leukemia) [µM] | TGI (SR leukemia) | GI50 (BT-549 breast) [µM] | TGI (BT-549 breast) | GI50 (MDA-MB-435) [µM] | TGI (MDA-MB-435) | GI50 (MALME-3M melanoma) | TGI (MALME-3M melanoma) | GI50 (NCI-H522 lung) [µM] | TGI (NCI-H522 lung) [µM]
1 | C[C@H]1C[C@@H](n2c(Nc3ccc(OC(F)(F)F)cc3)nc3cc(CCC(=O)O)ccc32)CC(C)(C)C1 | 6.29 µM | 22.6 µM | 13.8 µM | 28 µM | 16 | 32.9 µM | 14.3 | 44.5 µM | 11.2 µM | 29.1 µM | 6.23 | 36.6 µM | 3.13 | 12 µM | 10.4 | 22.9 µM | 16.2 µM | 37.3 µM | 14 | 33.2
2 | O=C(CCN1CCCC1)Nc1ccc2c(Nc3ccc(F)cc3)c3ccccc3nc2c1 | 0.147 µM | 1.89 µM | 1.37 µM | 2.72 µM | 1.48 | 3.34 µM | 1.01 | 3.79 µM | 1.21 µM | 3.03 µM | 0.174 | 2.3 µM | 1.73 | 4.28 µM | 1.58 | 3 µM | 1.57 µM | 2.99 µM | 1.31 | 3.25
3 | COc1ccc2[nH]c3c(C)c4c(c(C)c3c2c1)CN(C)C=C4 |  | > 100 µM |  | 0.698 µM |  | 70 µM |  | 14.9 µM |  | 18.2 µM |  | 46.3 µM |  | 4.41 µM |  | 71.2 µM |  | 3.92 µM |  | 6.34
4 | Nc1[nH]nc(Nc2ccccc2)c1-c1nc2ccccc2s1 | 2.26 µM | 8.68 µM | 2.39 µM | 10.9 µM | 1.59 | 3.75 µM | 2.2 | 11.2 µM | 2.19 µM | 11.8 µM | 1.84 | 8.02 µM | 1.52 | 3.34 µM | 1.94 | 4.89 µM | 2.79 µM | 8.58 µM | 1.58 | 3.63
5 | O=C1OC(c2ccc([N+](=O)[O-])cc2)=N/C1=C\c1ccc(Cl)cc1 |  | > 100 µM |  | > 100 µM |  | > 100 µM |  | > 100 µM |  | > 100 µM |  | > 100 µM |  | > 100 µM |  | > 100 µM |  | > 100 µM |  | > 100
6 | COc1ccc(Cn2cc3c(c2-c2ccccc2)CCc2cnoc2-3)cc1 | 0.0391 µM | > 100 µM | 0.165 µM | > 100 µM | 0.37 | > 100 µM | 1.32 | > 100 µM | 0.47 µM | > 100 µM | 0.0574 | 3.16 µM | 0.389 | > 100 µM | 0.0311 | > 100 µM |  |  | 0.0327 | 1.15
7 | COc1ccc(/C=C\c2cc(OC)c(OC)c(OC)c2)cc1NC(=O)/C=C/c1ccc(OC)c(OC)c1 | 3.22 µM | > 100 µM |  |  | 25.5 | > 100 µM | 5.98 | > 100 µM | 8.01 µM | > 100 µM | 0.412 | > 100 µM | 7.7 | > 100 µM | 0.348 | 1.71 µM | > 100 µM | > 100 µM | 2.61 | > 100
8 | COc1ccc(-c2nc(NC(=O)CS(=O)(=O)c3ccc(F)cc3)sc2C)cc1 | 16.3 µM | > 100 µM | 9.45 µM | 60.9 µM | 23.2 | > 100 µM | 21.7 | 80.6 µM | 31 µM | > 100 µM | 4.32 | 46.1 µM | 15.8 | 40.3 µM | 3.29 | 12.1 µM | 23 µM | 66.4 µM |  | 
9 | COc1ccc(-n2nc(C)c3c(Nc4ccc(NC(=O)Nc5cccc(C(F)(F)F)c5)cc4)ncnc32)cc1 | 2.05 µM | 5.57 µM | 0.87 µM | 3.03 µM | 1.46 | 3.14 µM | 1.64 | 4.84 µM | 2.1 µM | 5.27 µM | 2.54 | 9.38 µM | 1.97 | 5.32 µM | 1.8 | 3.78 µM | 1.59 µM | 3.31 µM | 1.6 | 3.8
10 | COc1ccc(C2=C(c3ccc(OC)cc3)C(=O)OC2)cc1 | 0.492 µM | 16.2 µM | 3.16 µM | > 100 µM | 5.15 | > 39.3 µM | 8.89 | > 65.6 µM | 16 µM | > 100 µM | 0.238 | 0.663 µM | 11.7 | > 100 µM | 0.0752 | 0.4 µM | 3.91 µM | 35.4 µM | 0.342 | 1.85
11 | COC(=O)CNC(=O)C(=O)c1c(O)c(O)c(C(C)C)c2cc(C)c(-c3c(C)cc4c(C(C)C)c(O)c(O)c(C(=O)C(=O)NCC(=O)OC)c4c3O)c(O)c12 | 1.64 µM | 6.11 µM | 1.61 µM | 8.5 µM | 1.99 | 9.64 µM | 5.09 | 40.9 µM | 1.29 µM | 4.58 µM | 1.32 | 7.76 µM | 2.65 | 11.8 µM | 2.46 | 9.3 µM | 2.23 µM | 11 µM | 1.32 | 3.43
12 | N[C@H]1CCC[C@@H](O)C1O (stereo partly drawn) |  | > 100 µM |  | > 100 µM |  | > 100 µM |  | > 100 µM |  |  |  | > 100 µM |  | > 100 µM |  | > 100 µM |  | > 100 µM |  | > 100
13 | CCC/C=C/C=C/C(=O)OC1/C(=C/C(=O)OC)CC2CC(C(C)O)OC(=O)CC(O)CC3CC(OC(C)=O)C(C)(C)C(O)(CC4C/C(=C/C(=O)OC)CC(/C=C/C(C)(C)C1(O)O2)O4)O3 (stereo not drawn) | > 10.9 µM and 5.88 µM and > 12.5 µM | > 10.9 µM and 11 µM and > 12.5 µM | 10.3 µM and 2.85 µM and > 12.5 µM | 10.9 µM and 9.84 µM and > 12.5 µM | > 12.5 | 11 µM and > 12.5 µM | > 12.5 | 11 µM and > 12.5 µM | > 6.88 µM and 3.48 µM and > 12.5 µM | > 6.88 µM and 10.1 µM and > 12.5 µM | 10.8 | 11 µM and > 12.5 µM | > 12.5 | 11 µM and > 12.5 µM | > 12.5 | 11 µM and > 12.5 µM | 5.71 µM and > 12.5 µM | 11 µM and > 12.5 µM | > 11 | > 12.5
